Assay results: PubChem BioAssay AID1259407 (Chemical Carcinogenesis Research Information System (CCRIS), 2018)
Active and inactive are the calls of the source. The rule behind the calls is not given here.

Test system: CCRIS mutagenicity, Ames/micronucleus/aberration tests
Test: CCRIS mutagenicity studies

Measured: mutagenic call

O=C(O)CCCl
inactive: Test System: Ames Salmonella typhimurium, Strain/Indicator: TA98, Metabolic Activation: None, Method: Preincubation inactive; negative | Test System: Ames Salmonella typhimurium, Strain/Indicator: TA98, Metabolic Activation: Rat, Liver, S9, Sodium phenobarbital and 5,6-benzoflavone (10%), Method: Preincubation inactive; negative | Test System: Ames Salmonella typhimurium, Strain/Indicator: TA1537, Metabolic Activation: Rat, Liver, S9, Sodium phenobarbital and 5,6-benzoflavone (10%), Method: Preincubation inactive; negative
active: Test System: Ames Salmonella typhimurium, Strain/Indicator: TA100, Metabolic Activation: None, Method: Preincubation active; positive | Test System: Ames Salmonella typhimurium, Strain/Indicator: TA100, Metabolic Activation: Rat, Liver, S9, Sodium phenobarbital and 5,6-benzoflavone (10%), Method: Preincubation active; positive | Test System: Ames Salmonella typhimurium, Strain/Indicator: TA1535, Metabolic Activation: None, Method: Preincubation active; positive | Test System: Ames Salmonella typhimurium, Strain/Indicator: TA1535, Metabolic Activation: Rat, Liver, S9, Sodium phenobarbital and 5,6-benzoflavone (10%), Method: Preincubation active; positive | Test System: E. coli, Strain/Indicator: WP2uvrA/pKM101, Metabolic Activation: None, Method: Preincubation active; positive | Test System: E. coli, Strain/Indicator: WP2uvrA/pKM101, Metabolic Activation: Rat, Liver, S9, Sodium phenobarbital and 5,6-benzoflavone (10%), Method: Preincubation active; positive

CCN(CC)CCCC(C)Nc1ccnc2cc(Cl)ccc12 (stereo unspecified)
active: Test System: AMES SALMONELLA TYPHIMURIUM, Strain/Indicator: TA97, Metabolic Activation: NONE, Method: STANDARD PLATE active; positive | Test System: AMES SALMONELLA TYPHIMURIUM, Strain/Indicator: TA98, Metabolic Activation: NONE, Method: STANDARD PLATE active; positive | Test System: AMES SALMONELLA TYPHIMURIUM, Strain/Indicator: TA98, Metabolic Activation: RAT, LIVER, S-9, AROCLOR 1254 OR PHENOBARBITOL, Method: STANDARD PLATE active; positive | Test System: AMES SALMONELLA TYPHIMURIUM, Strain/Indicator: TA100, Metabolic Activation: RAT, LIVER, S-9, AROCLOR 1254 OR PHENOBARBITOL, Method: STANDARD PLATE active; positive | Test System: AMES SALMONELLA TYPHIMURIUM, Strain/Indicator: TA1537, Metabolic Activation: NONE, Method: MICROFLUCTUATION active; positive | Test System: E. COLI, Strain/Indicator: DG1669, Metabolic Activation: NONE, Method: STANDARD PLATE active; positive | Test System: E. COLI, Strain/Indicator: DG1669, Metabolic Activation: RAT, LIVER, S-9, AROCLOR 1254, Method: STANDARD PLATE active; positive
inactive: Test System: AMES SALMONELLA TYPHIMURIUM, Strain/Indicator: TA97A, Metabolic Activation: NONE, Method: STANDARD PLATE inactive; negative | Test System: AMES SALMONELLA TYPHIMURIUM, Strain/Indicator: TA97A, Metabolic Activation: RAT LIVER S-9, PHENOBARBITAL, Method: STANDARD PLATE inactive; negative | Test System: AMES SALMONELLA TYPHIMURIUM, Strain/Indicator: TA97A, Metabolic Activation: RAT, LIVER, S-9, AROCLOR 1254, Method: STANDARD PLATE inactive; negative | Test System: AMES SALMONELLA TYPHIMURIUM, Strain/Indicator: TA98, Metabolic Activation: NONE, Method: PREINCUBATION inactive; negative | Test System: AMES SALMONELLA TYPHIMURIUM, Strain/Indicator: TA98, Metabolic Activation: RAT, LIVER, S-9, PCB, Method: STANDARD PLATE inactive; negative | Test System: AMES SALMONELLA TYPHIMURIUM, Strain/Indicator: TA98, Metabolic Activation: RAT, LIVER, S-9, Method: PREINCUBATION inactive; negative | Test System: AMES SALMONELLA TYPHIMURIUM, Strain/Indicator: TA100, Metabolic Activation: NONE, Method: PREINCUBATION inactive; negative | Test System: AMES SALMONELLA TYPHIMURIUM, Strain/Indicator: TA100, Metabolic Activation: RAT LIVER S-9, PHENOBARBITAL, Method: STANDARD PLATE inactive; negative | Test System: AMES SALMONELLA TYPHIMURIUM, Strain/Indicator: TA100, Metabolic Activation: RAT, LIVER, S-9, PCB, Method: STANDARD PLATE inactive; negative | Test System: AMES SALMONELLA TYPHIMURIUM, Strain/Indicator: TA100, Metabolic Activation: RAT, LIVER, S-9, Method: PREINCUBATION inactive; negative | Test System: AMES SALMONELLA TYPHIMURIUM, Strain/Indicator: TA102, Metabolic Activation: NONE, Method: STANDARD PLATE inactive; negative | Test System: AMES SALMONELLA TYPHIMURIUM, Strain/Indicator: TA102, Metabolic Activation: RAT LIVER S-9, PHENOBARBITAL, Method: STANDARD PLATE inactive; negative | Test System: AMES SALMONELLA TYPHIMURIUM, Strain/Indicator: TA104, Metabolic Activation: NONE, Method: STANDARD PLATE inactive; negative | Test System: AMES SALMONELLA TYPHIMURIUM, Strain/Indicator: TA104, Metabolic Activation: RAT LIVER S-9, PHENOBARBITAL, Method: STANDARD PLATE inactive; negative | Test System: AMES SALMONELLA TYPHIMURIUM, Strain/Indicator: TA1535, Metabolic Activation: NONE, Method: STANDARD PLATE inactive; negative | Test System: AMES SALMONELLA TYPHIMURIUM, Strain/Indicator: TA1535, Metabolic Activation: RAT, LIVER, S-9, AROCLOR 1254 OR PHENOBARBITOL, Method: STANDARD PLATE inactive; negative | Test System: AMES SALMONELLA TYPHIMURIUM, Strain/Indicator: TA1537, Metabolic Activation: NONE, Method: STANDARD PLATE inactive; negative | Test System: AMES SALMONELLA TYPHIMURIUM, Strain/Indicator: TA1537, Metabolic Activation: RAT, LIVER, S-9, AROCLOR 1254, Method: STANDARD PLATE inactive; negative | Test System: AMES SALMONELLA TYPHIMURIUM, Strain/Indicator: TA1537, Metabolic Activation: RAT, LIVER, S-9, AROCLOR 1254 OR PHENOBARBITOL, Method: STANDARD PLATE inactive; negative | Test System: AMES SALMONELLA TYPHIMURIUM, Strain/Indicator: TA1537, Metabolic Activation: RAT, LIVER, S-9, PCB, Method: STANDARD PLATE inactive; negative | Test System: AMES SALMONELLA TYPHIMURIUM, Strain/Indicator: TA1538, Metabolic Activation: NONE, Method: STANDARD PLATE inactive; negative | Test System: AMES SALMONELLA TYPHIMURIUM, Strain/Indicator: TA1538, Metabolic Activation: RAT, LIVER, S-9, AROCLOR OR PHENOBARBITOL, Method: STANDARD PLATE inactive; negative | Test System: AMES SALMONELLA TYPHIMURIUM, Strain/Indicator: TA1538, Metabolic Activation: RAT, LIVER, S-9, PCB, Method: STANDARD PLATE inactive; negative | Test System: AMES SALMONELLA TYPHIMURIUM, Strain/Indicator: TA1977, Metabolic Activation: NONE, Method: MICROFLUCTUATION inactive; negative | Test System: E. COLI, Strain/Indicator: WP2 UVRA, Metabolic Activation: RAT, LIVER, S-9, PCB, Method: STANDARD PLATE inactive; negative
